According to patent US4311698A, “Aminoacid derivatives of cephalosporin compounds” (priority 1980, dated 1982):
Converted amounts (≈) assume the structure as drawn.

Key:
Assay type in all cases: cell-based
[1] = system: E. Coli. Vogel; assay: In vitro minimal inhibitory concentration, E. Coli. Vogel; details: Escherichia coli
[2] = system: Pseudomonas #28; assay: In vitro minimal inhibitory concentration, Pseudomonas #28; details: Pseudomonas, read-out: Minimal Inhibitory Concentration
[3] = system: Prot Vulg.; assay: In vitro minimal inhibitory concentration, Prot Vulg.
[4] = system: Serr. Mar. IMM 16; assay: In vitro minimal inhibitory concentration, Serr. Mar. IMM 16
[5] = system: Entero Cloac. IM 11; assay: In vitro minimal inhibitory concentration, Entero Cloac. IM 11
[6] = system: Staph S 18713; assay: In vitro minimal inhibitory concentration, Staph S 18713
[7] = system: Klebs. Pneum. MGH 2; assay: In vitro minimal inhibitory concentration, Klebs. Pneum. MGH 2
[8] = system: Pseudomonas BRK 12-4-4; assay: In vitro minimal inhibitory concentration, Pseudomonas BRK 12-4-4; details: BRK1244
[9] = system: Staph UC76; assay: In vitro minimal inhibitory concentration, Staph UC76
[10] = system: Pseudomonas UI 18; assay: In vitro minimal inhibitory concentration, Pseudomonas UI 18; details: UI18
[11] = system: E. Coli. Brig; assay: In vitro minimal inhibitory concentration, E. Coli. Brig; details: Escherichia coli
[12] = system: Strep. fec. MGH 2; assay: In vitro minimal inhibitory concentration, Strep. fec. MGH 2

CC(=O)N[C@@H](CCC(N)=O)C(=O)Nc1ccc(-c2ccc(C(=O)N[C@@H](C(=O)NC3C(=O)N4C(C(=O)O)=C(CSc5nnnn5CS(=O)(=O)O)CSC34)c3ccccc3)c(=O)[nH]2)cc1 (stereo partly drawn) [Example 42, N-[6-[4-(N-Acetyl-L-glutaminylamino)phenyl]-1,2-dihydro-2-oxonicotinyl]-7-[D-2-amino-2-phenylacetamido]-3-[[(1-sulfomethyl-1H-tetrazol-5-yl)thio]methyl]-3-cephem-4-carboxylic acid]
MIC [1]: 0.8 mg/L (≈ 0.866 µM) | MIC [2]: 12.5 mg/L (≈ 13.5 µM) | MIC [3]: 3.1 mg/L (≈ 3.36 µM) | MIC [4]: 12.5 mg/L (≈ 13.5 µM) | MIC [5]: 6.3 mg/L (≈ 6.82 µM) | MIC [6]: 12.5 mg/L (≈ 13.5 µM) | MIC [7]: 3.1 mg/L (≈ 3.36 µM) | MIC [8]: 6.3 mg/L (≈ 6.82 µM) | MIC [9]: 6.3 mg/L (≈ 6.82 µM) | MIC [10]: 6.3 mg/L (≈ 6.82 µM) | MIC [11]: 6.3 mg/L (≈ 6.82 µM) | MIC [12]: > 50 mg/L
